Results reported in patent publication US4179464A, “Preparation of N-(phosphonoacetyl)-L-aspartic acid” (priority 1978, dated 1979).
“Also recorded” adds a separate entry of the source. Counter-ions that a name gives are not always drawn. Like-named read-outs stand apart in the source and are kept apart here.

Legend:
[1] = solubility; type: physicochemical
Procedure: (§1) The following determinations were made as to the physical properties of the disodium PALA. Except for the test for stability, these tests were carried out on material free of solvent contamination.

[2] = type: physicochemical
Procedure: as §1
pH. A 2% solution of the disodium salt in water has a pH of 4.08.

[3] = hygroscopic character; type: physicochemical; conditions: for physical state after moisture uptake: atmospheric moisture, eventually
Procedure: as §1
Hygroscopic Character. Tetrasodium PALA absorbs atmospheric moisture 1.5 times faster than the disodium salt.

[4] = system: expected tumor systems; experiment: activity of tetrasodium PALA samples in tumor systems; type: in vivo
Description: In spite of the above mentioned problems involving the consistency of elemental analyses and the low hydrogen values, the tetrasodium PALA samples were characterized as highly pure materials by nmr, optical rotation (comparison with literature value), and thin layer chromatography (homogeneous in four different solvent systems).

[5] = stability on drying in vacuo at 140° (NMR, TLC); type: physicochemical; conditions: dried in vacuo at 140° for 15.5 hours, sample containing acetic acid and ethanol
Procedure: as §1
Stability. A sample of disodium PALA was dried in vacuo at 140° for 15.5 hours. […] This is believed to be an ester produced at the elevated temperature in the presence of ethanol and acetic acid.

[6] = system: tumor systems; experiment: preliminary in vivo screening of PALA esters; conditions: relative to tetrasodium PALA
[7] = system: aspartate transcarbamylase; conditions: Stark et al., J. Biol. Chem., 246, 6599 (1971); cited from earlier work
[8] = system: Lewis Lung tumor; conditions: NCI screening program, data through Aug. 31, 1976; cited from earlier work
[9] = system: pyrimidine nucleotide biosynthesis; conditions: Stark et al. (1974); cited from earlier work
[10] = system: B16 tumor; conditions: NCI screening program, data through Aug. 31, 1976; cited from earlier work
[11] = system: P388 tumor; conditions: NCI screening program, data through Aug. 31, 1976; cited from earlier work

O=C(O)C[C@H](NC(=O)CP(=O)(O)O)C(=O)O [N,N'-dibenzylethylenediamine salt]
solubility in ethanol ([1]; ethanol, preliminary): soluble in ethanol

O=C(O)C[C@H](NC(=O)CP(=O)(O)O)C(=O)O [tetrasodium PALA, L-Aspartic acid, N-(phosphonoacetyl)-, tetrasodium salt]
pH when formulated in water ([2]; formulated in water): 9.2 | physiological acceptability of alkalinity in water ([2]; formulated in water, pH 9.2): alkaline (pH 9.2) to a degree generally considered harmful physiologically | hygroscopicity (in words) [3]: hygroscopic; also recorded: high degree of hygroscopicity | physical state after moisture uptake [3]: eventually take up enough moisture so as to lose their solid characteristics | rate of absorption of atmospheric moisture relative to the disodium salt ([3]; tetrasodium versus disodium salt, solvent-free material): 1.5 times faster | activity in the expected tumor systems [4]: active in the expected tumor systems

O=C([O-])C[C@H](NC(=O)CP(=O)(O)O)C(=O)[O-].[Na+].[Na+] [disodium PALA, L-Aspartic acid, N-(phosphonoacetyl)-, disodium salt]
pH of aqueous solution ([2]; 2% solution in water): 4.08 | physical state after moisture uptake [3]: eventually take up enough moisture so as to lose their solid characteristics | hygroscopicity (in words) ([3]; disodium salt): less hygroscopic than tetrasodium PALA | hygroscopicity (in words) ([3]; listed as Disodium PALA, disodium salt): less hygroscopic than the tetrasodium compound | water solubility (in words) ([1]; water): extremely water soluble | solubility ([1]; water, solvent-free material): > 950 mg/mL | structural integrity by NMR [5]: retained its structural integrity | change in thin layer chromatography ([5]; believed to be an ester): formation of a new, faster-running spot

O=C(O)C[C@H](NC(=O)CP(=O)(O)O)C(=O)O [cyclohexylamine salt]
hygroscopicity (in words) [3]: completely nonhygroscopic

O=C(CP(=O)(O)O)N[C@@H](CC(=O)OCc1ccccc1)C(=O)OCc1ccccc1 [IV, L-Aspartic acid, N-(phosphonoacetyl)-, dibenzyl ester]
hygroscopicity (in words) ([3]; listed as dibenzyl PALA): hygroscopic | water solubility (in words) [1]: insoluble in water

O=C(CP(=O)(O)O)N[C@@H](CC(=O)OCc1ccccc1)C(=O)OCc1ccccc1 [X]
fold less active than tetrasodium PALA [6]: approximately 100 fold | hygroscopicity (in words) [3]: markedly hygroscopic

O=C(O)C[C@H](NC(=O)CP(=O)(O)O)C(=O)O [calcium salt of PALA]
water solubility (in words) ([1]; water): dissolves in water permitting ready formulation | rate of dissolution in water ([1]; water, results tentative): dissolves relatively slowly

O=C(O)C[C@H](NC(=O)CP(=O)(O)O)C(=O)O [PALA, N-(phosphonoacetyl)-L-aspartic acid]
transition state analogue inhibitor of aspartate transcarbamylase [7]: transition state analogue inhibitor of aspartate transcarbamylase | activity against Lewis Lung tumor system [8]: active | inhibition of pyrimidine nucleotide biosynthesis in vitro [9]: inhibition of pyrimidine nucleotide biosynthesis in vitro | activity against B16 tumor system [10]: active | water solubility (in words) ([1]; water): high water solubility | activity against P388 tumor system [11]: active

O=C(CP(=O)(O)O)N[C@@H](CC(=O)OCc1ccccc1)C(=O)OCc1ccccc1 [XI, L-Aspartic acid, N-(phosphonoacetyl)-, dibenzyl ester, complexed with cyclohexylamine]
fold less active than tetrasodium PALA [6]: approximately 100 fold | hygroscopicity (in words) [3]: apparently less hygroscopic than (X)
